Holding throughout (assay): NCI-60 cell line screen, 48 h
Test [1] deals with SR leukemia.
Test [2] has as its system SW-620 colon.
The subject of test [3] is LOX IMVI melanoma.
Test [4] deals with HCT-116 colon.
Test [5] relates to HS 578T breast.
Test [6] has as its system NCI-H522 lung.
Test [7] deals with PC-3 prostate.
Test [8] deals with UACC-257 melanoma.
Test [9] deals with DU-145 prostate.

This passage reports TGI results from PubChem BioAssay (NCI).

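Briefly, cells in 96-well plates were exposed to five compound concentrations for 48 h, and endpoints were estimated by linear interpolation. TGI marks complete inhibition of growth.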

Take `O=C(NCc1cccnc1)C(=O)NCc1cccnc1`: the TGI in [1], in test [2], in test [3], in test [4], in test [5] and in [6] was above 100 µM in each case. The TGI in [7], in [8] and in test [9] was above 100 µM each time.
In the case of `O=C1C(=Cc2ccccc2[N+](=O)[O-])N=C(c2ccccc2)N1n1c(-c2ccccc2)nc2ccccc2c1=O`, the TGI was above 100 µM in test [1]; above 100 µM in test [2]; 68.5 µM in [3]; 33.7 µM in test [4]; 86 µM in test [5]; 31.8 µM in test [6]. For the same compound, the TGI in test [7] was 80.6 µM; in [8], 90.7 µM; in [9] it was above 100 µM.
For the compound `N#Cc1c(C#N)c(-c2ccccc2)n(/N=C\c2ccccc2)c1N`, the TGI in [1] is 82.9 µM; in test [2] it was above 100 µM; in [3], 32.8 µM; in test [4], above 100 µM; in test [5], 61.3 µM; in test [6] it was 49.5 µM. For the same compound, the TGI was 49.4 µM in [7], 70.3 µM in test [8] and above 100 µM in test [9].
Take `COc1ccc(C(C)NNC(=O)c2ccncc2)cc1F` (stereo not given): the TGI in test [1], in test [2], in [3], in [4], in test [5] and in test [7] was above 100 µM in each case. The TGI in [8] and in test [9] was above 100 µM in each case.
Consider `COc1ccc(NS(=O)c2cccc(C)c2)cc1` (stereo not given), for which the TGI in [1], in test [2], in test [3], in [4], in [5] and in [6] was above 100 µM throughout. In addition, the TGI in [7], in test [8] and in test [9] was above 100 µM throughout.
For `Cc1cccc2c1C(=O)[C@@](C)([C@]1(C)Nc3cccc(C)c3C1=O)N2`, the TGI in [1], in test [2], in test [3], in [4], in test [5] and in test [6] was above 100 µM each time. Also, the TGI in [7], in test [8] and in [9] was above 100 µM in each case.
For the compound `CN(C)c1ccc(/C=C2\C[C@H]3[C@@H]4CCc5cc(O)ccc5[C@H]4CC[C@]3(C)C2=O)cc1`, the TGI in [1] was above 100 µM; in test [2] it was above 100 µM; in [3], above 100 µM; in test [5], 30.5 µM; in test [7] it was above 100 µM; in test [8], above 100 µM. The TGI in test [9] was above 100 µM.
In the case of `CCOC(=O)c1cn(C)nc1N/C(C)=C\C(=O)c1ccccc1`, the TGI in [1], in test [2], in test [3], in test [5], in test [6] and in test [7] was above 100 µM throughout. Besides, the TGI in [8] and in test [9] was above 100 µM each time.
Take `C=C1C(=O)O[C@H]2C/C(C=O)=C\[C@H]3O[C@H]3/C(COC(=O)C(C)C)=C/CC12` (stereo not given in full): the TGI worked out at 7.95 µM in test [1]; 6.87 µM in test [2]; 11.8 µM in test [3]; 10.1 µM in test [4]; 22 µM in test [5]; 10.5 µM in [6]. Moreover, the figures for the TGI in test [7], in test [8] and in test [9] were 8.59 µM, 28.4 µM and 25.2 µM, respectively.
`CCCCCCCCCCCCCCCCNc1ccn(C2CC(OP(=O)(O)OCC3OC(n4cc(CC)c(=O)[nH]c4=O)CC3O)C(CO)O2)c(=O)n1` (stereo not given): the TGI is 47.2 µM in test [1]; 65.4 µM in test [2]; above 100 µM in test [3]; above 100 µM in test [4]; 67.1 µM in test [5]; above 100 µM in test [6]. In addition, the TGI in test [7] was 37.1 µM; in test [8] it was 97.4 µM; in test [9], above 100 µM.
Regarding `Cc1cc(C)c2c(c1)CC1(Cc3c(C)cc(C)cc3C1=O)C2=O` (stereo not given), the TGI in test [1], in test [2], in test [3], in test [5], in test [6] and in [7] was above 100 µM each time. Further, the TGI in test [8] and in [9] was above 100 µM each time.
Regarding `COC(=O)C[C@H](CCSC)NC(=O)C[C@H](CCSC)NC(=O)C[C@H](CCSC)NC(=O)OC(C)(C)C`, the TGI in [1], in [2], in test [3], in test [4], in test [5] and in test [6] was above 100 µM each time. In addition, the TGI in [7], in [8] and in test [9] was above 100 µM each time.
Regarding `COc1ccc(C2NC(=O)Nc3c2c(=O)oc2c3ccc3ccccc32)cc1` (stereo not given), the TGI in test [1], in test [2], in test [3], in test [4], in test [5] and in test [6] was above 100 µM in each case. Moreover, the TGI in test [7], in test [8] and in [9] was above 100 µM throughout.
Consider `COC(=O)C1[C@H](C(=O)OC)C1(Br)CBr` (stereo not given in full), for which the TGI in test [1], in test [2], in test [3], in test [4], in test [5] and in test [6] was above 100 µM in each case. Further, the TGI in [7], in test [8] and in test [9] was above 100 µM each time.
In the case of `C/C(=C\CNc1nc(Cl)nc2nc[nH]c12)CO`, the TGI in test [1], in test [2], in test [3], in test [4], in [5] and in test [6] was above 100 µM throughout. For the same compound, the TGI in [7], in [8] and in test [9] was above 100 µM in each case.
